The source of these data is the supplement of paper PMC10307832.

Assay in all cases: relative viability (nuclei count vs DMSO), 5 days (fraction); higher = more cells survive
Compound in the assay “Carboplatin + Dasatinib”: C1CC(C1)(C(=O)O)C(=O)O.[NH2-].[NH2-].[Pt+2] [Carboplatin] + Cc1nc(Nc2ncc(C(=O)Nc3c(C)cccc3Cl)s2)cc(N2CCN(CCO)CC2)n1 [Dasatinib] (partner 0.075 µM)
The procedure, abridged:
(§1)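 Five library-drug doses in √10 steps were combined with a fixed anchor-drug dose, or a single drug was given alone, by pin tool to lung cancer cell lines in 1536-well plates the day after seeding. Nuclei were stained and counted after 5 days. Relative viability is the nuclei count in treated wells over that in vehicle wells, taken as the median of duplicate plates.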

Compound in the assay “GSK126 + Palbociclib”: CC[C@H](C)N1C=C(C2=C(C=C(C=C21)C3=CN=C(C=C3)N4CCNCC4)C(=O)NCC5=C(C=C(NC5=O)C)C)C [GSK126] + CC(=O)c1c(C)c2cnc(Nc3ccc(N4CCNCC4)cn3)nc2n(C2CCCC2)c1=O [Palbociclib] (partner 0.5 µM)
The procedure, abridged: as §1

Compound in the assay “GSK126 + Navitoclax”: CC[C@H](C)N1C=C(C2=C(C=C(C=C21)C3=CN=C(C=C3)N4CCNCC4)C(=O)NCC5=C(C=C(NC5=O)C)C)C [GSK126] + CC1(C)CCC(c2ccc(Cl)cc2)=C(CN2CCN(c3ccc(C(=O)NS(=O)(=O)c4ccc(N[C@H](CCN5CCOCC5)CSc5ccccc5)c(S(=O)(=O)C(F)(F)F)c4)cc3)CC2)C1 [Navitoclax] (partner 0.5 µM)
The procedure, abridged:
as §1

Compound in the assay “GSK126 + Pemetrexed”: CC[C@H](C)N1C=C(C2=C(C=C(C=C21)C3=CN=C(C=C3)N4CCNCC4)C(=O)NCC5=C(C=C(NC5=O)C)C)C [GSK126] + Nc1nc2[nH]cc(CCc3ccc(C(=O)N[C@@H](CCC(=O)O)C(=O)O)cc3)c2c(=O)[nH]1 [Pemetrexed] (partner 0.2 µM)
The procedure, abridged: as §1

201T: the relative viability worked out at 0.575 with Carboplatin + Dasatinib (first compound 0.08 µM); 0.571 with Carboplatin + Dasatinib (first compound 0.253 µM); 0.569 with Carboplatin + Dasatinib (first compound 0.8 µM); 0.487 with Carboplatin + Dasatinib (first compound 2.53 µM); 0.576 in the assay with Carboplatin + Dasatinib (first compound 8 µM); 0.442 with GSK126 + Palbociclib (first compound 0.08 µM). The relative viability is 0.356 with GSK126 + Palbociclib (first compound 0.253 µM); 0.378 in the assay with GSK126 + Palbociclib (first compound 0.8 µM); 0.387 with GSK126 + Palbociclib (first compound 2.53 µM); 0.382 in the assay with GSK126 + Palbociclib (first compound 8 µM); 1.18 in the assay with GSK126 + Navitoclax (first compound 0.08 µM); 1.27 with GSK126 + Navitoclax (first compound 0.253 µM). For the same cell line, the relative viability was found to be 1.27 in the assay with GSK126 + Navitoclax (first compound 0.8 µM); 1.26 with GSK126 + Navitoclax (first compound 2.53 µM); 1.32 with GSK126 + Navitoclax (first compound 8 µM); 0.346 in the assay with GSK126 + Pemetrexed (first compound 0.08 µM); 0.342 in the assay with GSK126 + Pemetrexed (first compound 0.253 µM); 0.329 with GSK126 + Pemetrexed (first compound 0.8 µM). In addition, the relative viability with GSK126 + Pemetrexed (first compound 2.53 µM) is 0.367; in the assay with GSK126 + Pemetrexed (first compound 8 µM), 0.328.

Turning to A549, the relative viability was 1.37 in the assay with GSK126 + Navitoclax (first compound 0.08 µM); 1.28 with GSK126 + Navitoclax (first compound 0.253 µM); 1.23 with GSK126 + Navitoclax (first compound 0.8 µM); 1.24 in the assay with GSK126 + Navitoclax (first compound 2.53 µM); 1.13 with GSK126 + Navitoclax (first compound 8 µM).

In the case of A-427, the relative viability was found to be 0.728 in the assay with Carboplatin + Dasatinib (first compound 0.08 µM); 0.772 in the assay with Carboplatin + Dasatinib (first compound 0.253 µM); 0.716 with Carboplatin + Dasatinib (first compound 0.8 µM); 0.704 with Carboplatin + Dasatinib (first compound 2.53 µM); 0.657 with Carboplatin + Dasatinib (first compound 8 µM); 0.534 with GSK126 + Palbociclib (first compound 0.08 µM). Besides, the relative viability is 0.519 with GSK126 + Palbociclib (first compound 0.253 µM); 0.517 with GSK126 + Palbociclib (first compound 0.8 µM); 0.5 with GSK126 + Palbociclib (first compound 2.53 µM); 0.491 with GSK126 + Palbociclib (first compound 8 µM); 1.04 with GSK126 + Navitoclax (first compound 0.08 µM); 1 with GSK126 + Navitoclax (first compound 0.253 µM). Besides, the relative viability with GSK126 + Navitoclax (first compound 0.8 µM) was determined as 0.836; with GSK126 + Navitoclax (first compound 2.53 µM) it was 0.959; with GSK126 + Navitoclax (first compound 8 µM), 0.845; with GSK126 + Pemetrexed (first compound 0.08 µM), 1.03; in the assay with GSK126 + Pemetrexed (first compound 0.253 µM) it was 0.937; with GSK126 + Pemetrexed (first compound 0.8 µM) it was 1.03. Moreover, the relative viability with GSK126 + Pemetrexed (first compound 2.53 µM) stood at 1.08; in the assay with GSK126 + Pemetrexed (first compound 8 µM), 0.991.

For the cell line ABC-1, the relative viability in the assay with Carboplatin + Dasatinib (first compound 0.08 µM) was determined as 0.654; with Carboplatin + Dasatinib (first compound 0.253 µM), 0.639; with Carboplatin + Dasatinib (first compound 0.8 µM), 0.522; with Carboplatin + Dasatinib (first compound 2.53 µM), 0.546; with Carboplatin + Dasatinib (first compound 8 µM), 0.458; with GSK126 + Palbociclib (first compound 0.08 µM), 0.768. Moreover, the relative viability with GSK126 + Palbociclib (first compound 0.253 µM) was found to be 0.735; with GSK126 + Palbociclib (first compound 0.8 µM), 0.675; with GSK126 + Palbociclib (first compound 2.53 µM) it was 0.98; with GSK126 + Palbociclib (first compound 8 µM), 0.675.

With BEN, the relative viability with Carboplatin + Dasatinib (first compound 0.08 µM) was 0.339; in the assay with Carboplatin + Dasatinib (first compound 0.253 µM) it was 0.296; with Carboplatin + Dasatinib (first compound 0.8 µM) it was 0.284; in the assay with Carboplatin + Dasatinib (first compound 2.53 µM), 0.319; in the assay with Carboplatin + Dasatinib (first compound 8 µM) it was 0.228; with GSK126 + Palbociclib (first compound 0.08 µM), 0.482. The relative viability turned out to be 0.41 in the assay with GSK126 + Palbociclib (first compound 0.253 µM); 0.5 with GSK126 + Palbociclib (first compound 0.8 µM); 0.506 in the assay with GSK126 + Palbociclib (first compound 2.53 µM); 0.473 in the assay with GSK126 + Palbociclib (first compound 8 µM); 0.0742 with GSK126 + Navitoclax (first compound 0.08 µM); 0.0598 with GSK126 + Navitoclax (first compound 0.253 µM). Moreover, the relative viability with GSK126 + Navitoclax (first compound 0.8 µM) is 0.0517; with GSK126 + Navitoclax (first compound 2.53 µM) it was 0.0958; with GSK126 + Navitoclax (first compound 8 µM), 0.0522; with GSK126 + Pemetrexed (first compound 0.08 µM), 0.881; with GSK126 + Pemetrexed (first compound 0.253 µM), 0.715; with GSK126 + Pemetrexed (first compound 0.8 µM), 0.832. In addition, the relative viability in the assay with GSK126 + Pemetrexed (first compound 2.53 µM) stood at 0.896; with GSK126 + Pemetrexed (first compound 8 µM), 0.785.

For the cell line CAL-12T, the relative viability came to 0.375 with Carboplatin + Dasatinib (first compound 0.08 µM); 0.502 with Carboplatin + Dasatinib (first compound 0.253 µM); 0.419 in the assay with Carboplatin + Dasatinib (first compound 0.8 µM); 0.521 in the assay with Carboplatin + Dasatinib (first compound 2.53 µM); 0.372 in the assay with Carboplatin + Dasatinib (first compound 8 µM); 0.491 with GSK126 + Palbociclib (first compound 0.08 µM). The relative viability with GSK126 + Palbociclib (first compound 0.253 µM) was 0.458; with GSK126 + Palbociclib (first compound 0.8 µM), 0.515; with GSK126 + Palbociclib (first compound 2.53 µM) it was 0.416; with GSK126 + Palbociclib (first compound 8 µM) it was 0.41; with GSK126 + Navitoclax (first compound 0.08 µM), 1.27; with GSK126 + Navitoclax (first compound 0.253 µM), 1.27. Also, the relative viability with GSK126 + Navitoclax (first compound 0.8 µM) is 0.967; in the assay with GSK126 + Navitoclax (first compound 2.53 µM) it was 1.1; in the assay with GSK126 + Navitoclax (first compound 8 µM), 1.33; with GSK126 + Pemetrexed (first compound 0.08 µM), 1.31; with GSK126 + Pemetrexed (first compound 0.253 µM), 1.37; in the assay with GSK126 + Pemetrexed (first compound 0.8 µM), 1.09. The relative viability in the assay with GSK126 + Pemetrexed (first compound 2.53 µM) came out at 1.13; with GSK126 + Pemetrexed (first compound 8 µM) it was 1.43.

On to COR-L23, for which the relative viability amounted to 0.51 with Carboplatin + Dasatinib (first compound 0.08 µM); 0.536 in the assay with Carboplatin + Dasatinib (first compound 0.253 µM); 0.436 with Carboplatin + Dasatinib (first compound 0.8 µM); 0.373 in the assay with Carboplatin + Dasatinib (first compound 2.53 µM); 0.216 with Carboplatin + Dasatinib (first compound 8 µM); 0.307 with GSK126 + Palbociclib (first compound 0.08 µM). Moreover, the relative viability in the assay with GSK126 + Palbociclib (first compound 0.253 µM) was determined as 0.265; in the assay with GSK126 + Palbociclib (first compound 0.8 µM), 0.259; with GSK126 + Palbociclib (first compound 2.53 µM) it was 0.279; with GSK126 + Palbociclib (first compound 8 µM) it was 0.352; in the assay with GSK126 + Navitoclax (first compound 0.08 µM), 1.17; with GSK126 + Navitoclax (first compound 0.253 µM), 1.01. Further, the relative viability came out at 0.834 with GSK126 + Navitoclax (first compound 0.8 µM); 0.95 with GSK126 + Navitoclax (first compound 2.53 µM); 0.968 with GSK126 + Navitoclax (first compound 8 µM); 0.229 with GSK126 + Pemetrexed (first compound 0.08 µM); 0.194 with GSK126 + Pemetrexed (first compound 0.253 µM); 0.188 with GSK126 + Pemetrexed (first compound 0.8 µM). Further, the relative viability worked out at 0.185 in the assay with GSK126 + Pemetrexed (first compound 2.53 µM) and 0.183 with GSK126 + Pemetrexed (first compound 8 µM).

In the case of COR-L 105, the relative viability worked out at 0.364 with Carboplatin + Dasatinib (first compound 0.08 µM); 0.351 in the assay with Carboplatin + Dasatinib (first compound 0.253 µM); 0.37 with Carboplatin + Dasatinib (first compound 0.8 µM); 0.293 in the assay with Carboplatin + Dasatinib (first compound 2.53 µM); 0.297 in the assay with Carboplatin + Dasatinib (first compound 8 µM); 0.42 with GSK126 + Palbociclib (first compound 0.08 µM). Moreover, the relative viability with GSK126 + Palbociclib (first compound 0.253 µM) is 0.423; with GSK126 + Palbociclib (first compound 0.8 µM) it was 0.421; with GSK126 + Palbociclib (first compound 2.53 µM), 0.377; in the assay with GSK126 + Palbociclib (first compound 8 µM), 0.415; in the assay with GSK126 + Navitoclax (first compound 0.08 µM), 0.813; in the assay with GSK126 + Navitoclax (first compound 0.253 µM), 0.745. For the same cell line, the relative viability is 0.754 in the assay with GSK126 + Navitoclax (first compound 0.8 µM); 0.678 in the assay with GSK126 + Navitoclax (first compound 2.53 µM); 0.719 in the assay with GSK126 + Navitoclax (first compound 8 µM); 1.08 with GSK126 + Pemetrexed (first compound 0.08 µM); 0.987 with GSK126 + Pemetrexed (first compound 0.253 µM); 0.887 in the assay with GSK126 + Pemetrexed (first compound 0.8 µM). Further, the relative viability with GSK126 + Pemetrexed (first compound 2.53 µM) is 1.11; with GSK126 + Pemetrexed (first compound 8 µM), 1.12.

For the cell line Calu-6, the relative viability with GSK126 + Navitoclax (first compound 0.08 µM) came to 0.936; with GSK126 + Navitoclax (first compound 0.253 µM) it was 0.858; with GSK126 + Navitoclax (first compound 0.8 µM) it was 0.853; with GSK126 + Navitoclax (first compound 2.53 µM) it was 0.842; with GSK126 + Navitoclax (first compound 8 µM), 0.795.
